*1 amine or outer side, *2 acyl side, *3 side chain or, on linkers, in order; H or OH if unused. Where a SMILES comes first, the peptide text is derived from it. [ ]: non-standard residue; d: D form. The star is where a group is joined. X1 = CC(C)(C)C(=O)CN1C(=O)[C@H](N*)CN(C2CCCCC2)c2ccccc21; pGlu = O=C1CC[C@@H](C(=O)O)N1; PEG3 = NCCOCCOCCOCCC(=O)O; 3Abz = Nc1cccc(C(=O)O)c1; X2 = NCCNCC(CNCCN)C(=O)*; CO = O=C([*:1])[*:2]
Columns and labels:
human CCK2R [1] = target: T1, human CCK2R (Homo sapiens, UniProt P32239); assay: FRET-based Ca2+ mobilization assay in HEK293-hCCK2R/YC3.60 cells; type: cell-based
T1 construct: host or cells: HEK293 clone #21 (HEK293-hCCK2R/YC3.60), stably co-expressing the Ca2+ biosensor YC3.60
T1 sequence (P32239 1-447): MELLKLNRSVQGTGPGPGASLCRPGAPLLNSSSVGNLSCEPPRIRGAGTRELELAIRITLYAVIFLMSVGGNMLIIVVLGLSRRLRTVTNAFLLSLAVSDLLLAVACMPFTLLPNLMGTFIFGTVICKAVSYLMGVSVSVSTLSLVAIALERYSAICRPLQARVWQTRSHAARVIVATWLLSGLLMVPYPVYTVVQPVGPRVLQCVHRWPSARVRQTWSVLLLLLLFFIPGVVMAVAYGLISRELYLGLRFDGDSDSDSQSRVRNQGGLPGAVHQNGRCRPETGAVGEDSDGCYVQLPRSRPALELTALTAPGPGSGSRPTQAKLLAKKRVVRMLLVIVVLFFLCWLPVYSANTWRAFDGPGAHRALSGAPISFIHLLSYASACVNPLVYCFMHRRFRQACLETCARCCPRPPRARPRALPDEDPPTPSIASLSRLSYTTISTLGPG
Protocol: For most biological experiments, HEK293 cells transfected to stably express the human CCK2i4svR splice variant were used, kindly provided by Dr. P. Laverman (Radboud University Nijmegen Medical Center, Nijmegen, The Netherlands) and Prof. M. R. Hellmich (University of Texas Medical Branch, Galveston, TX, USA), while non-transfected wtHEK293 cells served as negative controls. Cells were cultured in DMEM with GlutaMAX-I supplemented with 10% (v/v) fetal bovine serum (FBS), 100 U/mL penicillin and 100 μg/mL streptomycin and kept in a controlled humidified air containing 5% CO2 at 37 °C; the medium for transfected cells was additionally supplemented with 400 μg/mL G418. All culture media were purchased from Gibco BRL, Life Technologies (Grand Island, NY, USA) and supplements were supplied by Biochrom KG Seromed (Berlin, Germany). For Ca^2+-mobilization assays, HEK293 cell clones (generated by O.G. Chepurny in the G.G. Holz laboratory) were transfected to stably co-express either both the human CCK2R and the Ca^2+ biosensor YC3.60 (clone #21) or only YC3.60 (clone #5, negative controls devoid of CCK2R expression) (Supplementary File). Ca^2+ mobilization assays were conducted by FRET-based detection of Ca^2+ in HEK293-hCCK2R/YC3.60 and HEK293-YC3.60 cells (negative controls) for GAS1/2/3 as well as for DG2, [Leu^15]gastrin-17 and Z360 (controls), as outlined in the Supplementary File. […]
Table S2. Analytical HPLC Data for (Radio)Metal-Tagged GAS1/2/3 (tR (min) gamma/UV trace). compound - [67Ga]Ga/[natGa]Ga [111In]In/[natIn]In [177Lu]Lu/[natLu]Lu […]
(§1) Purity as determined by HPLC exceeded 97% in all cases. system 1 was applied: RP-HPLC with twin UV detection at 220 nm and gamma detection; a Symmetry Shield RP18 column (5 μm, 3.9 mm × 150 mm) was eluted at a flow rate of 1 mL/min with linear gradient: 100%A/0% B to 70%A/30% B in 5 min and then 70%A/30% B to 55%A/45% B in 60 min, with A = 0.1% TFA in H2O (v/v) and B = MeCN.
Preparation of [natGa]Ga-GAS1/2/3, [natIn]In-GAS1/2/3 and [natLu]Lu-GAS1/3 To an Eppendorf Protein LoBind® centrifuge tube containing GAS1/2/3 precursor stock solution (60 μL, 120 μg, ≈60 nmol), a stock solution (60 μL, 2 mM, 120 nmol) of the respective nitrate salt dissolved in 1 M sodium acetate buffer of pH 4.0 (for gallium), 4.6 (for indium) and 5.0 (for lutetium) was added. The mixture was heated at 75 °C for 1 h. […]
action mixture using HPLC system 1, allowing for base line separation of metal-tagged from metal-free GAS1/2/3. Retention times (UV trace, tR in min) of all GAS species were included in Table S2. The metal-tagged GAS solutions were used as such in in vitro com-petition binding assays assuming a 0.5 mM CCK2R-ligand concentration.
Methods for FRET-based detection of Ca2+ in HEK293 cells were descri bed previ ousl y. The clone #21 HEK293 cell line (HEK293-hCCK2R/YC3.60) stably co-expressing the human CCK2R and the Ca2+ biosensor YC3.60 was generated a ccording to published methods. The clone #5 HEK293 cell line (HEK293-YC3.60) that expressed only YC3.60 served as a negative control and was generated in a similar matter. […] The human CCK2R (NM_176875) in pCMV6-Entry vector contained the receptor’s complete open reading frame with a Myc-DDK epitope tag (OriGene Technologies; Cat. No. R200676). Test compounds included human [Leu15]-gastrin- […]

[2] = target: T2, human CCK2i4svR splice variant (Homo sapiens, UniProt P32239); assay: Competition binding against [125I][I-Tyr12,Leu15]gastrin-17 in HEK293-CCK2i4svR cell membranes; details: vs [125I][I-Tyr12,Leu15]gastrin-17, HEK293-CCK2i4svR cell membranes, 1 h 22 °C; mean ± SD
T2 construct: expressed in transfected cells; membrane homogenates
T2 sequence (P32239 1-516 isoform P32239-2): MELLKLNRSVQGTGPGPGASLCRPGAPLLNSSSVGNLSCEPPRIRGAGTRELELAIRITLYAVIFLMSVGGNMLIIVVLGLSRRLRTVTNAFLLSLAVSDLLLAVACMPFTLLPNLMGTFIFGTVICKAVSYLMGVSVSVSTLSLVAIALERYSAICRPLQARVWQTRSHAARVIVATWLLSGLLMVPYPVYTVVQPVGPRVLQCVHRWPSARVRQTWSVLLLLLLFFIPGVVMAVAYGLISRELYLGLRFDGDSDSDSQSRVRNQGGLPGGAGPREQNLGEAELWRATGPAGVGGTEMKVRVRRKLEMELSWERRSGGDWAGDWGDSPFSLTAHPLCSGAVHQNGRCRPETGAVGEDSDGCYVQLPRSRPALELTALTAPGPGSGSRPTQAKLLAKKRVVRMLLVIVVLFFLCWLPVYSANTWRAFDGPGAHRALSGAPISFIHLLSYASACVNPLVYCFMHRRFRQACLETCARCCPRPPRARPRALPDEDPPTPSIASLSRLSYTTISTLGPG
Protocol: Competition binding assays for the metal-free GAS1/2/3 and the corresponding metal-tagged [^natGa]Ga/[^natIn]In/[^natLu]Lu-GAS1/3 and [^natGa]Ga/[^natIn]In-GAS2 analogs were conducted against the [^125I][I-Tyr^12,Leu^15]gastrin-17 radioligand in membrane homogenates harvested from HEK293-CCK2i4svR cells, as previously described. Briefly, each of the above analogs, or unmodified Z360 serving as control, was incubated in triplicates of increasing concentrations (10^−13–10^−6 M) with [^125I][I-Tyr^12,Leu^15]gastrin-17 (50 pM, ≈40,000 cpm) and membrane homogenate in binding buffer (300 µL, pH 7.4, 50 mM HEPES, 1% BSA, 5.5 mM MgCl2, 35 µM bacitracin) for 1 h at 22 °C. Incubation was interrupted by rapid filtration through glass fiber filters (Whatman GF/B, presoaked in binding buffer for at least 1 h) on a Brandel Cell Harvester (Adi Hassel Ingenieur Büro, Munich, Germany) and subsequent rinsing with ice-cold washing buffer (10 mM HEPES pH 7.4, 150 mM NaCl). The radioactivity content of individual filters was measured in a gamma counter (automated multi-sample well-type instrument with a NaI(Tl) 3′ crystal, Canberra Packard Cobra^TM Quantum U5003/1, Auto-Gamma® counting system). The 50% inhibitory concentration (IC50) was determined by nonlinear regression analysis according to a one-site model using PRISM 6 (Graph Pad Software, San Diego, CA, USA). Values are expressed as mean ± standard deviation (SD) of three independent experiments performed in triplicate.

human CCK2R [3] = target: T1, human CCK2R; design: method as in PMID 32568549; details: cited from earlier work
HEK293-YC3.60 cells = assay: FRET-based Ca2+ mobilization assay in HEK293-YC3.60 cells (negative controls devoid of CCK2R); type: cell-based, human; details: HEK293-YC3.60 clone #5
Protocol: For most biological experiments, HEK293 cells transfected to stably express the human CCK2i4svR splice variant were used, kindly provided by Dr. P. Laverman (Radboud University Nijmegen Medical Center, Nijmegen, The Netherlands) and Prof. M. R. Hellmich (University of Texas Medical Branch, Galveston, TX, USA), while non-transfected wtHEK293 cells served as negative controls. Cells were cultured in DMEM with GlutaMAX-I supplemented with 10% (v/v) fetal bovine serum (FBS), 100 U/mL penicillin and 100 μg/mL streptomycin and kept in a controlled humidified air containing 5% CO2 at 37 °C; the medium for transfected cells was additionally supplemented with 400 μg/mL G418. […]
as §1, with “MeCN. […]” for “MeCN.”
Methods for FRET-based detection of Ca2+ in HEK293 cells were descri bed previ ousl y. […] The human CCK2R (NM_176875) in pCMV6-Entry vector contained the receptor’s complete open reading frame with a Myc-DDK epitope tag (OriGene Technologies; Cat. No. R200676). […]

Row | Concentration at which the CCK2R is activated (Ca2+ mobilization) (human CCK2R [1]) [pM] | Compound | Concentration threshold for agonistic properties (Ca2+ mobilization) (human CCK2R [1]) [nM] | IC50 [2] [nM] | Functional profile at the CCK2R (human CCK2R [3]) | Ca2+ response in cells devoid of CCK2R expression (HEK293-YC3.60 cells)
1 | – | CC(C)(C)C(=O)CN1C(=O)C(NC(=O)Nc2cccc(C(=O)O)c2)CN(C2CCCCC2)c2ccccc21 (centres unmarked) [Z360] | > 100 | 1.2 ± 0.5 | – | –
2 | – | CC(C)(C)C(=O)CN1C(=O)[C@H](NC(=O)Nc2cccc(C(=O)NCCOCCOCCOCCNC(=O)[C@H](CCC(=O)O)NC(=O)CN3CCN(CC(=O)O)CCN(CC(=O)O)CCN(CC(=O)O)CC3)c2)CN(C2CCCCC2)c2ccccc21 [GAS1, DOTA-DGlu-HN(PEG3)NH-Z360] | > 100 | 5.9 ± 1.8 | – | –
3 | – | CC(C)(C)C(=O)CN1C(=O)[C@H](NC(=O)Nc2cccc(C(=O)NCCOCCOCCOCCC(=O)N[C@H](CCC(=O)O)C(=O)N[C@H](CCC(=O)O)C(=O)N[C@H](CCC(=O)O)C(=O)N[C@H](CCC(=O)O)C(=O)N[C@@H](CCCCNC(=O)C(CNCCN)CNCCN)C(=O)O)c2)CN(C2CCCCC2)c2ccccc21 [DGA1, Z360-PEG3-DGlu-DGlu-DGlu-DGu-Lys(N4)−OH] ({X1-CO-3Abz-PEG3}-[dE][dE][dE][dE]K(X2)-OH) | – | – | pure antagonist profile | –
4 | – | CC(C)(C)C(=O)CN1C(=O)[C@H](NC(=O)Nc2cccc(C(=O)NCCOCCOCCOCCNC(=O)[C@H](CCC(=O)O)NC(=O)CCC(C(=O)O)N3CCN(CC(=O)O)CCN(CC(=O)O)CC3)c2)CN(C2CCCCC2)c2ccccc21 (some centres unmarked) [GAS2, NODAGA-DGlu-HN(PEG3)NH-Z360] | > 100 | 4.1 ± 1.1 | – | –
5 | – | CC(C)(C)C(=O)CN1C(=O)[C@H](NC(=O)Nc2cccc(C(=O)NCCOCCOCCOCCNC(=O)[C@H](CCC(=O)O)NC(=O)CCC(C(=O)O)N3CCN(CC(=O)O)CCN(CC(=O)O)CCN(CC(=O)O)CC3)c2)CN(C2CCCCC2)c2ccccc21 (some centres unmarked) [GAS3, DOTAGA-DGlu-HN(PEG3)NH-Z360] | > 100 | 3.1 ± 1.5 | – | –
6 | 100 | CC(C)C[C@H](NC(=O)[C@H](Cc1c[nH]c2ccccc12)NC(=O)CNC(=O)[C@H](Cc1ccc(O)cc1)NC(=O)[C@H](C)NC(=O)[C@H](CCC(=O)O)NC(=O)[C@H](CCC(=O)O)NC(=O)[C@H](CCC(=O)O)NC(=O)[C@H](CCC(=O)O)NC(=O)[C@H](CCC(=O)O)NC(=O)[C@H](CC(C)C)NC(=O)[C@H](Cc1c[nH]c2ccccc12)NC(=O)[C@@H]1CCCN1C(=O)CNC(=O)[C@@H]1CCC(=O)N1)C(=O)N[C@@H](CC(=O)O)C(=O)N[C@@H](Cc1ccccc1)C(N)=O [[Leu^15]gastrin-17, pGlu-Gly-Pro-Trp-Leu-(Glu)5-Ala-Tyr-Gly-Trp-Leu-Asp-Phe-NH2, reference compound] ([pGlu]GPWLEEEEEAYGWLDF-NH2) | – | – | – | failed to respond

Source: PMC8954547, “Nonpeptidic Z360-Analogs Tagged with Trivalent Radiometals as Anti-CCK2R Cancer Theranostic Agents: A Preclinical Study” (Pharmaceutics, 2022)
